In patent publication US20230127944A1, “BROAD-SPECTRUM CARBAPENEMS” (priority 2019, published 2023):
In brackets after ≈: the same amount, converted by molar mass.

Assays:
Type in all cases: cell-based
[1] = system: P. aeruginosa ATCC 27853 (wild-type/QC strain); test: broth microdilution MIC assay, P. aeruginosa 27853; settings: Pseudomonas aeruginosa, ATCC27853; read-out: MIC, P. aeruginosa 27853
Summary of the method: (§1)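 CLSI microdilution; MH broth + divalent cations; 5×10^5 CFU/mL; 2-fold series; 37° C, 16-20 h; visual MIC.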

[2] = system: P. aeruginosa ΔmexAB-OprM (an efflux pump knockout); test: broth microdilution MIC assay, P. aeruginosa ΔmexAB-OprM; settings: Pseudomonas aeruginosa, read-out: MIC, P. aeruginosa ΔmexAB-OprM
Summary of the method: as §1

[3] = system: S. aureus USA 300; test: broth microdilution MIC assay, S. aureus USA300; settings: Staphylococcus aureus; S. aureus USA300 (MRSA); read-out: MIC, S. aureus USA300
Summary of the method: as §1

[4] = system: S. aureus USA 600; test: broth microdilution MIC assay, S. aureus USA600; settings: Staphylococcus aureus; S. aureus USA600 (MRSA); read-out: MIC, S. aureus USA600
Summary of the method: as §1

[5] = system: E. coli ATCC 25922 (wild-type/QC strain); test: broth microdilution MIC assay, E. coli 25922; settings: Escherichia coli, ATCC25922; read-out: MIC, E. coli 25922
Summary of the method: as §1

[6] = system: P. aeruginosa 35151 (hyper-permeable strain); test: broth microdilution MIC assay, P. aeruginosa 35151; settings: Pseudomonas aeruginosa, read-out: MIC, P. aeruginosa 35151
Summary of the method: as §1

[7] = system: P. aeruginosa Paeβ-17; test: broth microdilution MIC assay, P. aeruginosa Paeβ-17; settings: Pseudomonas aeruginosa, read-out: MIC, P. aeruginosa Paeβ-17
Summary of the method: as §1

[8] = system: S. aureus ATCC 33591 (methicillin-resistant); test: broth microdilution MIC assay, S. aureus 33591; settings: Staphylococcus aureus, ATCC33591; S. aureus 33591, methicillin-resistant; read-out: MIC, S. aureus 33591
Summary of the method: as §1

Compound	MIC [1]	MIC [2]	MIC [3]	MIC [4]	MIC [5]	MIC [6]	MIC [7]	MIC [8]
C[C@@H](O)[C@H]1C(=O)N2C(C(=O)O)=C(S[C@H]3C[C@H](N[C@H]4CC[C@H](N)CC4)C3)[C@H](C)[C@H]12 [Example 59, (4R,5S,6S)-3-(((1R,3R)-3-(((1R,4R)-4-aminocyclohexyl)amino)cyclobutyl)thio)-6-((R)-1-hydroxyethyl)-4-methyl-7-oxo-1-azabicyclo[3.2.0]hept-2-ene-2-carboxylic acid]	8 to 32 µg/mL (≈ 19.5 to 78.1 µM)	1 to 4 µg/mL (≈ 2.44 to 9.77 µM)	1 to 4 µg/mL (≈ 2.44 to 9.77 µM)	8 to 32 µg/mL (≈ 19.5 to 78.1 µM)	< 1 µg/mL	< 1 µg/mL	8 to 32 µg/mL (≈ 19.5 to 78.1 µM)	1 to 4 µg/mL (≈ 2.44 to 9.77 µM)
C[C@@H](O)[C@H]1C(=O)N2C(C(=O)O)=C(S[C@H]3C[C@H](N[C@H]4CC[C@@H](N)CC4)C3)[C@H](C)[C@H]12 [Example 60, (4R,5S,6S)-3-(((1R,3R)-3-(((1S,4S)-4-aminocyclohexyl)amino)cyclobutyl)thio)-6-((R)-1-hydroxyethyl)-4-methyl-7-oxo-1-azabicyclo[3.2.0]hept-2-ene-2-carboxylic acid]	8 to 32 µg/mL (≈ 19.5 to 78.1 µM)	1 to 4 µg/mL (≈ 2.44 to 9.77 µM)	1 to 4 µg/mL (≈ 2.44 to 9.77 µM)	1 to 4 µg/mL (≈ 2.44 to 9.77 µM)	< 1 µg/mL	< 1 µg/mL	8 to 32 µg/mL (≈ 19.5 to 78.1 µM)	8 to 32 µg/mL (≈ 19.5 to 78.1 µM)
C[C@@H](O)[C@H]1C(=O)N2C(C(=O)O)=C(S[C@H]3C[C@@H](N[C@H]4CC[C@H](N)CC4)C3)[C@H](C)[C@H]12 [Example 61, (4R,5S,6S)-3-(((1S,3S)-3-(((1R,4S)-4-aminocyclohexyl)amino)cyclobutyl)thio)-6-((R)-1-hydroxyethyl)-4-methyl-7-oxo-1-azabicyclo[3.2.0]hept-2-ene-2-carboxylic acid]	1 to 4 µg/mL (≈ 2.44 to 9.77 µM)	1 to 4 µg/mL (≈ 2.44 to 9.77 µM)	1 to 4 µg/mL (≈ 2.44 to 9.77 µM)	1 to 4 µg/mL (≈ 2.44 to 9.77 µM)	< 1 µg/mL	< 1 µg/mL	8 to 32 µg/mL (≈ 19.5 to 78.1 µM)	1 to 4 µg/mL (≈ 2.44 to 9.77 µM)
C[C@@H](O)[C@H]1C(=O)N2C(C(=O)O)=C(S[C@H]3C[C@@H](N[C@H]4CC[C@@H](N)CC4)C3)[C@H](C)[C@H]12 [Example 62, (4R,5S,6S)-3-(((1S,3S)-3-(((1S,4R)-4-aminocyclohexyl)amino)cyclobutyl)thio)-6-((R)-1-hydroxyethyl)-4-methyl-7-oxo-1-azabicyclo[3.2.0]hept-2-ene-2-carboxylic acid]	1 to 4 µg/mL (≈ 2.44 to 9.77 µM)	1 to 4 µg/mL (≈ 2.44 to 9.77 µM)	1 to 4 µg/mL (≈ 2.44 to 9.77 µM)	1 to 4 µg/mL (≈ 2.44 to 9.77 µM)	< 1 µg/mL	< 1 µg/mL	8 to 32 µg/mL (≈ 19.5 to 78.1 µM)	1 to 4 µg/mL (≈ 2.44 to 9.77 µM)
C[C@@H](O)[C@H]1C(=O)N2C(C(=O)O)=C(S[C@@H]3CCN([C@H]4CC[C@@H](CNC(=N)N)CC4)C3)[C@H](C)[C@H]12 [Example 63, (4R,5S,6S)-3-(((R)-1-((1S,4S)-4-(guanidinomethyl)cyclohexyl)pyrrolidin-3-yl)thio)-6-((R)-1-hydroxyethyl)-4-methyl-7-oxo-1-azabicyclo[3.2.0]hept-2-ene-2-carboxylic acid]	1 to 4 µg/mL (≈ 2.15 to 8.59 µM)	1 to 4 µg/mL (≈ 2.15 to 8.59 µM)	1 to 4 µg/mL (≈ 2.15 to 8.59 µM)	1 to 4 µg/mL (≈ 2.15 to 8.59 µM)	< 1 µg/mL	< 1 µg/mL	8 to 32 µg/mL (≈ 17.2 to 68.7 µM)	1 to 4 µg/mL (≈ 2.15 to 8.59 µM)
C[C@@H](O)[C@H]1C(=O)N2C(C(=O)O)=C(S[C@@H]3CCN([C@H]4CC[C@H](CNC(=N)N)CC4)C3)[C@H](C)[C@H]12 [Example 64, (4R,5S,6S)-3-(((R)-1-((1R,4R)-4-(guanidinomethyl)cyclohexyl)pyrrolidin-3-yl)thio)-6-((R)-1-hydroxyethyl)-4-methyl-7-oxo-1-azabicyclo[3.2.0]hept-2-ene-2-carboxylic acid]	1 to 4 µg/mL (≈ 2.15 to 8.59 µM)	1 to 4 µg/mL (≈ 2.15 to 8.59 µM)	1 to 4 µg/mL (≈ 2.15 to 8.59 µM)	1 to 4 µg/mL (≈ 2.15 to 8.59 µM)	< 1 µg/mL	< 1 µg/mL	8 to 32 µg/mL (≈ 17.2 to 68.7 µM)	1 to 4 µg/mL (≈ 2.15 to 8.59 µM)
C[C@@H](O)[C@H]1C(=O)N2C(C(=O)O)=C(SC3CN([C@H]4CC[C@@H](CNC(=N)N)CC4)C3)[C@H](C)[C@H]12 [Example 65, (4R,5S,6S)-3-((1-((1S,4S)-4-(guanidinomethyl)cyclohexyl)azetidin-3-yl)thio)-6-((R)-1-hydroxyethyl)-4-methyl-7-oxo-1-azabicyclo[3.2.0]hept-2-ene-2-carboxylic acid]	1 to 4 µg/mL (≈ 2.21 to 8.86 µM)	1 to 4 µg/mL (≈ 2.21 to 8.86 µM)	1 to 4 µg/mL (≈ 2.21 to 8.86 µM)	1 to 4 µg/mL (≈ 2.21 to 8.86 µM)	< 1 µg/mL	< 1 µg/mL	8 to 32 µg/mL (≈ 17.7 to 70.9 µM)	1 to 4 µg/mL (≈ 2.21 to 8.86 µM)
C[C@@H](O)[C@H]1C(=O)N2C(C(=O)O)=C(SC3CN([C@H]4CC[C@H](CNC(=N)N)CC4)C3)[C@H](C)[C@H]12 [Example 66, (4R,5S,6S)-3-((1-((1R,4R)-4-(guanidinomethyl)cyclohexyl)azetidin-3-yl)thio)-6-((R)-1-hydroxyethyl)-4-methyl-7-oxo-1-azabicyclo[3.2.0]hept-2-ene-2-carboxylic acid]	1 to 4 µg/mL (≈ 2.21 to 8.86 µM)	1 to 4 µg/mL (≈ 2.21 to 8.86 µM)	1 to 4 µg/mL (≈ 2.21 to 8.86 µM)	1 to 4 µg/mL (≈ 2.21 to 8.86 µM)	< 1 µg/mL	< 1 µg/mL	8 to 32 µg/mL (≈ 17.7 to 70.9 µM)	1 to 4 µg/mL (≈ 2.21 to 8.86 µM)
C[C@@H](O)[C@H]1C(=O)N2C(C(=O)O)=C(S[C@H]3C[C@H](N[C@H]4CC[C@H](N)C4)C3)[C@H](C)[C@H]12 [Example 67, (4R,5S,6S)-3-(((1S,3R)-3-(((1S,3S)-3-aminocyclopentyl)amino)cyclobutyl)thio)-6-((R)-1-hydroxyethyl)-4-methyl-7-oxo-1-azabicyclo[3.2.0]hept-2-ene-2-carboxylic acid]	8 to 32 µg/mL (≈ 20.2 to 80.9 µM)	1 to 4 µg/mL (≈ 2.53 to 10.1 µM)	8 to 32 µg/mL (≈ 20.2 to 80.9 µM)	1 to 4 µg/mL (≈ 2.53 to 10.1 µM)	< 1 µg/mL	< 1 µg/mL	8 to 32 µg/mL (≈ 20.2 to 80.9 µM)	8 to 32 µg/mL (≈ 20.2 to 80.9 µM)
C[C@@H](O)[C@H]1C(=O)N2C(C(=O)O)=C(S[C@H]3C[C@H](N[C@H]4CC[C@H](NC(=N)N)CC4)C3)[C@H](C)[C@H]12 [Example 68, (4R,5S,6S)-3-(((1R,3R)-3-(((1R,4R)-4-guanidinocyclohexyl)amino)cyclobutyl)thio)-6-((R)-1-hydroxyethyl)-4-methyl-7-oxo-1-azabicyclo[3.2.0]hept-2-ene-2-carboxylic acid]	8 to 32 µg/mL (≈ 17.7 to 70.9 µM)	1 to 4 µg/mL (≈ 2.21 to 8.86 µM)	1 to 4 µg/mL (≈ 2.21 to 8.86 µM)	1 to 4 µg/mL (≈ 2.21 to 8.86 µM)	< 1 µg/mL	< 1 µg/mL	8 to 32 µg/mL (≈ 17.7 to 70.9 µM)	8 to 32 µg/mL (≈ 17.7 to 70.9 µM)
C[C@@H](O)[C@H]1C(=O)N2C(C(=O)O)=C(S[C@H]3C[C@H](N[C@H]4CC[C@@H](NC(=N)N)CC4)C3)[C@H](C)[C@H]12 [Example 69, (4R,5S,6S)-3-(((1R,3R)-3-(((1S,4S)-4-guanidinocyclohexyl)amino)cyclobutyl)thio)-6-((R)-1-hydroxyethyl)-4-methyl-7-oxo-1-azabicyclo[3.2.0]hept-2-ene-2-carboxylic acid]	8 to 32 µg/mL (≈ 17.7 to 70.9 µM)	1 to 4 µg/mL (≈ 2.21 to 8.86 µM)	1 to 4 µg/mL (≈ 2.21 to 8.86 µM)	1 to 4 µg/mL (≈ 2.21 to 8.86 µM)	< 1 µg/mL	< 1 µg/mL	8 to 32 µg/mL (≈ 17.7 to 70.9 µM)	8 to 32 µg/mL (≈ 17.7 to 70.9 µM)
C[C@@H](O)[C@H]1C(=O)N2C(C(=O)O)=C(S[C@H]3C[C@H](N[C@@H]4CC[C@H](N)C4)C3)[C@H](C)[C@H]12 [Example 70, (4R,5S,6S)-3-(((1R,3R)-3-(((1R,3S)-3-aminocyclopentyl)amino)cyclobutyl)thio)-6-((R)-1-hydroxyethyl)-4-methyl-7-oxo-1-azabicyclo[3.2.0]hept-2-ene-2-carboxylic acid]	8 to 32 µg/mL (≈ 20.2 to 80.9 µM)	1 to 4 µg/mL (≈ 2.53 to 10.1 µM)	8 to 32 µg/mL (≈ 20.2 to 80.9 µM)	1 to 4 µg/mL (≈ 2.53 to 10.1 µM)	< 1 µg/mL	< 1 µg/mL	8 to 32 µg/mL (≈ 20.2 to 80.9 µM)	8 to 32 µg/mL (≈ 20.2 to 80.9 µM)
